{"source": "patent US8217084B2", "about": "“Medicinal products incorporating bound organosulfur groups” (Allium Vitalis Incorporated, priority 2004, dated 2012)", "key": {"[1]": {"settings": "in vivo; cited from earlier work"}, "[2]": {"settings": "cited from earlier work"}, "[3]": {"settings": "after 25 g fresh garlic or 60 mg pure allicin; cited from earlier work"}, "[4]": {"settings": "n-octanol/water (stated for DADS); cited from earlier work"}, "[5]": {"assay": "Reaction with hydrogen peroxide, HPLC", "text": "Hydrogen peroxide (H2O2) was chosen for use as the model oxidant because it is readily available, sufficiently reactive to produce the desired effects, and sufficiently stable to be readily observed. The availability of an inexpensive real-time probe for H2O2 measurement (the ABD-3001, which could be leased by the month from Universal Sensors Inc.) was also a consideration.\nThe specific ability of allyl mercaptan in this regard was deemed worthy of being experimentally investigated because further experiments were planned that would rely on this ability. […] Therefore, HPLC alone was used to measure the reactants and products.\nIn FIG. 7, the concentrations are reported as “uM allyl” to take into account the fact that each DADS molecule contains two allyl groups, while each AllylSH molecule has only one.\nAnother experiment was performed at approximate body temperature (37 degrees C.) and calculated membrane AllylSH concentration."}, "[6]": {"assay": "pH dependence of reaction rate with cysteine"}, "CYP2E1 enzyme": {"target": "CYP2E1 enzyme (Rattus norvegicus, UniProt P05182)", "sequence (P05182 whole entry)": "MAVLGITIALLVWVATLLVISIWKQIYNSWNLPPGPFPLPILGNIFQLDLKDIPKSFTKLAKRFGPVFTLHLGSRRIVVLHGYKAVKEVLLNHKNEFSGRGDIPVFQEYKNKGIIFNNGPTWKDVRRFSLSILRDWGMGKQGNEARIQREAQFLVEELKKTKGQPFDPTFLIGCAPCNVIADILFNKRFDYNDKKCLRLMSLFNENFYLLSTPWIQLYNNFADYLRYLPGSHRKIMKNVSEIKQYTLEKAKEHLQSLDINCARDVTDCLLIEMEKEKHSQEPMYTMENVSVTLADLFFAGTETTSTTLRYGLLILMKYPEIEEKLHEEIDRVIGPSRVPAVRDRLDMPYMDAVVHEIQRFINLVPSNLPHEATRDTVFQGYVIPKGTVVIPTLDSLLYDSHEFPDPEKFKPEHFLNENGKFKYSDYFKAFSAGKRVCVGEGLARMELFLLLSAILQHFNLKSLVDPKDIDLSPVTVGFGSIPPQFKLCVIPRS", "settings": "cited from earlier work"}, "CYP2D6": {"tested_on": "CYP2D6", "settings": "in 30 minutes; cited from earlier work"}, "LDL": {"tested_on": "LDL", "settings": "cited from earlier work"}, "[7]": {"settings": "chemiluminescence assay; cited from earlier work"}, "[8]": {"tested_on": "total glutathione level of cells", "settings": "cited from earlier work"}, "[9]": {"settings": "cited from earlier work", "remark": "listed apart in the source"}, "[10]": {"settings": "in vivo; cited from earlier work", "remark": "listed apart in the source"}, "[11]": {"settings": "cited from earlier work; for pKa: thiol group"}, "nematodes": {"tested_on": "nematodes", "settings": "cited from earlier work"}, "E-coli O157:H7": {"tested_on": "E-coli O157:H7", "settings": "cited from earlier work"}, "papain": {"target": "T1, papain (Carica papaya, UniProt P00784)", "T1 sequence (P00784 134-345)": "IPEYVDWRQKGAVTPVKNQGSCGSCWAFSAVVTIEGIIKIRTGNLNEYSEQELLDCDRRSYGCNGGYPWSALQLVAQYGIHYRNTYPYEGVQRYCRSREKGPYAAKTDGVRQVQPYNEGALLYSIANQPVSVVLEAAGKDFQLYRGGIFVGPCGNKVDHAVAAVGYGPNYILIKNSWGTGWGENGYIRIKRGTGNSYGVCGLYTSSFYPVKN", "settings": "cited from earlier work"}, "[12]": {"tested_on": "glutathione content of cells", "settings": "daily dosage of 1000 mg; cited from earlier work"}}, "note": "“Also recorded” adds a separate entry of the source. Like-named read-outs stand apart in the source and are kept apart here."}
{"compound": "C=CCSSC=CC[S+]([O-])CC=C", "note": "(mixture of isomers) [ajoene]", "values": [{"measurement": "production of breath AMS and acetone", "setting": "[1]", "value": "produce both breath AMS and acetone"}]}
{"compound": "C=CCS[S+]([O-])CC=C", "note": "(stereo not shown) [Allicin, DiAllylThioSulfinate]", "values": [{"measurement": "Reaction in Blood Half-life", "setting": "[2]", "value": "<1", "unit": "min"}, {"measurement": "Reaction in Blood Product (moles)", "setting": "[2]", "value": "(1.6) moles"}, {"measurement": "time to metabolize to allyl mercaptan", "setting": "[2]; red blood cells exposed to allicin", "value": "less than one minute"}, {"measurement": "detectability in blood, urine, or stool", "setting": "[3]", "value": "undetectable"}, {"measurement": "partition coefficient", "setting": "[4]", "value": 12.3}]}
{"compound": "C=CCS", "note": "[AllylSH, AllylThiol]", "values": [{"measurement": "formation of diallyl disulfide", "setting": "[5]; 0.85 mM AllylSH, 10 mM H2O2, 15 minute", "value": "essentially linear with time"}]}
{"compound": "C=CCSSCC=C", "note": "[DADS, Diallyl Disulfide]", "values": [{"measurement": "allicin yield", "setting": "[5]; 0.2 mM DADS, 0.022 mM AllylSH, 5.0 mM H2O2, 37 degrees C., 11 minutes", "value": 0.015, "unit": "mM"}, {"measurement": "rate of allicin formation", "setting": "[5]; 0.2 mM DADS, 5.0 mM H2O2, room temperature, no AllylSH", "value": "essentially linear with time"}, {"measurement": "dependence of reaction rate with cysteine on pH", "setting": "[6]", "value": "dramatically increasing between pH 8 and 9"}, {"measurement": "Reaction in Blood Half-life", "setting": "[2]", "value": 60, "unit": "min"}, {"measurement": "Reaction in Blood Product (moles)", "setting": "[2]", "value": "(0.8) moles"}, {"measurement": "production of breath AMS and acetone", "setting": "[1]", "value": "produce both breath AMS and acetone"}, {"measurement": "partition coefficient", "setting": "[4]", "value": 25.0}, {"measurement": "inhibition of CYP2E1", "setting": "CYP2E1 enzyme", "value": "potent inhibitor"}, {"measurement": "conversion of DADS to allicin", "setting": "CYP2D6", "value": "approximately 30%"}]}
{"compound": "C=CCSCC=C", "note": "[DAS, diallyl sulfide]", "values": [{"measurement": "production of breath AMS and acetone", "setting": "[1]", "value": "only produces breath acetone"}]}
{"compound": "C=CCSSSCC=C", "note": "[DATS, Diallyl Trisulfide]", "values": [{"measurement": "Reaction in Blood Half-life", "setting": "[2]", "value": 4, "unit": "min"}, {"measurement": "Reaction in Blood Product (moles)", "setting": "[2]", "value": "(0.8) moles"}, {"measurement": "production of breath AMS and acetone", "setting": "[1]", "value": "produce both breath AMS and acetone"}]}
{"compound": "C=CCSC[C@H](NC(C)=O)C(=O)O", "note": "[N-acetyl-S-allylcysteine]", "values": [{"measurement": "effect on Cu2+ induced LDL oxidation", "setting": "LDL", "value": "significantly reduce"}]}
{"compound": "C=CCSC[C@H](N)C(=O)O", "note": "[SAC, S-allylcysteine]", "values": [{"measurement": "effect on Cu2+ induced LDL oxidation", "setting": "LDL", "value": "significantly reduce"}, {"measurement": "production of breath AMS and acetone", "setting": "[1]", "value": "produces no breath AMS or acetone"}]}
{"compound": "C=CCSSC[C@H](N)C(=O)O", "note": "[SAMC, S-AllylMercaptoCysteine]", "values": [{"measurement": "Reaction in Blood Half-life", "setting": "[2]", "value": 3, "unit": "min"}, {"measurement": "Reaction in Blood Product (moles)", "setting": "[2]", "value": "(0.8) moles"}, {"measurement": "effect on Cu2+ induced LDL oxidation", "setting": "LDL", "value": "significantly reduce"}, {"measurement": "antioxidant or pro-oxidant activity", "setting": "[7]", "value": "most effective antioxidants"}, {"measurement": "bioavailable (ingested)", "setting": "[1]", "value": 100, "unit": "%"}, {"measurement": "production of breath AMS and acetone", "setting": "[1]", "value": "produce both breath AMS and acetone"}, {"measurement": "total glutathione level of cells", "setting": "[8]", "value": "significantly increase the total glutathione level of cells; also recorded: significant increases the total glutathione level of cells"}, {"measurement": "protection from acetaminophen poisoning", "setting": "[9]; post treatment, single dose 200 mg/kg", "value": "protective"}, {"measurement": "protection from acetaminophen poisoning", "setting": "[9]; pretreatment", "value": "protect mice from acetaminophen poisoning"}]}
{"compound": "Cc1c(C)c2c(c(C)c1O)CC[C@@](C)(CCC[C@H](C)CCC[C@H](C)CCCC(C)C)O2", "note": "[alpha-tocopherol]", "values": [{"measurement": "partition coefficient", "setting": "[4]", "value": 550}]}
{"compound": "NCCS", "note": "[cysteamine]", "values": [{"measurement": "radioprotective effect", "setting": "[10]", "value": "effective"}]}
{"compound": "N[C@@H](CS)C(=O)O", "note": "[cysteine, Cysteine]", "values": [{"measurement": "pKa", "setting": "[11]", "value": "approximately 8.5"}, {"measurement": "pKa", "setting": "[11]; listed as CySH", "value": 8.44}, {"measurement": "radioprotective effect", "setting": "[10]", "value": "effective"}]}
{"compound": "CCCS[S+]([O-])CCC", "note": "(stereo not shown) [dipropylthiosulfinate]", "values": [{"measurement": "nematicidal activity", "setting": "nematodes", "value": "most effective compound found"}]}
{"compound": "N[C@@H](CCC(=O)N[C@@H](CS)C(=O)NCC(=O)O)C(=O)O", "note": "[glutathione, Glutathione]", "values": [{"measurement": "antioxidant or pro-oxidant activity", "setting": "[7]", "value": "most effective antioxidants"}, {"measurement": "pKa of transformation to thiazoline form", "setting": "[11]", "value": 5.3}, {"measurement": "pKa", "setting": "[11]", "value": "approximately 8.5"}, {"measurement": "radioprotective effect", "setting": "[10]", "value": "effective"}]}
{"compound": "N[C@@H](CCS)C(=O)O", "note": "[homocysteine]", "values": [{"measurement": "radioprotective effect", "setting": "[10]", "value": "effective"}]}
{"compound": "C=CCS[S+](C)[O-]", "note": "(stereo not shown) [methyl allyl thiosulfinate]", "values": [{"measurement": "activity against E-coli O157:H7", "setting": "E-coli O157:H7", "value": "effective against E-coli O157:H7"}]}
{"compound": "CS[S+](C)[O-]", "note": "(stereo not shown) [methyl methane thiosulfinate]", "values": [{"measurement": "activity against E-coli O157:H7", "setting": "E-coli O157:H7", "value": "effective against E-coli O157:H7"}]}
{"compound": "O=[N+]([O-])c1ccc([Se]S(=O)(=O)O)cc1", "note": "[selenosulfide, pNO2Ph-Se—SO3^−]", "values": [{"measurement": "limit of inhibition of SH-dependent enzyme", "setting": "papain", "value": "~50", "unit": "%"}]}
{"compound": "O=C1O[C@H]([C@@H](O)CO)C(O)=C1O", "note": "[vitamin C]", "values": [{"measurement": "mean percentage decrease of glutathione", "setting": "[12]", "value": 60, "unit": "%"}]}
{"compound": "S-allylcysteine sulfoxide [alliin]", "values": [{"measurement": "effect on Cu2+ induced LDL oxidation", "setting": "LDL", "value": "significantly reduce"}]}
{"compound": "SnO2Ph-Se—S—SO3^− [S-aryl selenenylthiosulphate]", "values": [{"measurement": "inactivation of the enzyme", "setting": "papain; by the first data point", "value": "> 90", "unit": "%"}]}
